# Results reported in article PMC3443238, “Synthesis and Antiangiogenic Activity of N-Alkylated Levamisole Derivatives” (PLoS ONE, 2012).
# Structures can show the parent of a compound that is named as a salt.
# Key:
# [1] = system: human umbilical vein endothelial cells (HUVECs) in co-culture with normal human dermal fibroblasts (NHDF); assay: in vitro angiogenesis assay, HUVEC-NHDF co-culture, CD31 immunostaining; assay type: cell-based; details: for inhibition of angiogenesis compared with (S)-levamisole hydrochloride (1): Figure 5, Table 1
# Protocol: The antiangiogenic effects of the compounds were determined in a previously developed assay, designed to evaluate the growth and differentiation of human umbilical vein endothelial cells (HUVECs) in co-culture with normal human dermal fibroblasts (NHDF). […] The cluster morphology known from (S)-levamisole, was also observed for tetramisole (2) (Figure 5B and Table 1), p-bromolevamisole (3) (Figure 5C and Table 1), and N-methyllevamisoles (7a, b), with the latter mentioned showing a slightly more pronounced effect (Figure 5E and F, Figure 6 A–D, Table 1). […] Compound 4 (Figure 5D and Table 1), on the other hand, inhibited the capillary network formation to give small cords exclusively, which is reminiscent of the effect of suramin (5) (Figure 5N and Table 1), another well-known angiogenesis inhibitor [44], [51].
# Co-culture cell assays were performed according to a method described previously, [44]. Briefly, 10^3 NHDFs were cultured in each well of a 96-well microtiter plate in NHDF standard medium (100 μL, FGM-2 Bullet kit) at 37°C in an atmosphere containing 5% CO2. After 3 days the medium was removed and 10^3 HUVECs were seeded onto the NHDF in TFSM2 medium (135 μL). The samples of the individual compounds were prepared by weight and dissolved in a concentration of […] in DMSO, PBS, or Milli-Q water followed by pH adjustment, and sterile filtration through 0.22 μm filters. Medium, buffer controls or test samples of 15 µL were added to each well containing the HUVEC–NHDF co-culture and were incubated for 3 days. Experiments were repeated 2–4 times with identical results.
# HUVEC and fibroblasts were stained with a CD31 antibody according to the method previously described, [44]. Briefly, the cells were washed with PBS, fixed with ethanol, blocked with TTN buffer, incubated with mouse anti-human CD31 diluted 1∶250 in TTN buffer, washed in TTN buffer and incubated with alkaline phosphatase-conjugated goat anti-mouse IgG diluted 1∶1000 in TTN buffer. Bound antibody was subsequently visualised with BCIP/NBT and inspected in an Olympus IX70 microscope and photographed with an Olympus DP12 digital camera (Magnification: 40x). Image analysis was carried out using the program AnalySIS (Soft Imaging Systems, Münster, Germany).
# [2] = molecular target: T1, human placenta alkaline phosphatase (HPAP) (Homo sapiens, UniProt P05187); assay: Alkaline phosphatase assay (p-nitrophenyl phosphate), human placenta enzyme; assay type: biochemical
# T1 construct: alkaline phosphatase (0.01 U/mL) from human placenta or bovine kidneys; from tissue; host or cells: human placenta
# Protocol: (§1) The levamisole derivatives were diluted to 2.5, 5 and 10 mM in DMSO. Samples (10 µL) and 90 µL solution of alkaline phosphatase (0.01 U/mL) from human placenta or bovine kidneys diluted in substrate buffer were added to a 96-well microtiter plate and incubated for 35 minutes at room temperature. Hereafter, 100 µL p-nitrophenyl phosphate (2 mg/mL) were added, and the plate was read at 405 nm with background subtraction at 650 nm on a Versamax Elisa reader (Molecular Devices, Sunnyvale, CA, USA) after 24 and 35 min. Results were obtained as the mean of double determinations. The EC50 values were read from the curve at half maximal absorbance.
# [3] = molecular target: T2, bovine kidney tissue non-specific alkaline phosphatase (TNAP) (Bos taurus, UniProt P09487); assay: Alkaline phosphatase assay (p-nitrophenyl phosphate), bovine kidney enzyme; assay type: biochemical
# T2 construct: alkaline phosphatase (0.01 U/mL) from human placenta or bovine kidneys; from tissue; host or cells: bovine kidneys
# T2 sequence (P09487 18-499 limits assumed): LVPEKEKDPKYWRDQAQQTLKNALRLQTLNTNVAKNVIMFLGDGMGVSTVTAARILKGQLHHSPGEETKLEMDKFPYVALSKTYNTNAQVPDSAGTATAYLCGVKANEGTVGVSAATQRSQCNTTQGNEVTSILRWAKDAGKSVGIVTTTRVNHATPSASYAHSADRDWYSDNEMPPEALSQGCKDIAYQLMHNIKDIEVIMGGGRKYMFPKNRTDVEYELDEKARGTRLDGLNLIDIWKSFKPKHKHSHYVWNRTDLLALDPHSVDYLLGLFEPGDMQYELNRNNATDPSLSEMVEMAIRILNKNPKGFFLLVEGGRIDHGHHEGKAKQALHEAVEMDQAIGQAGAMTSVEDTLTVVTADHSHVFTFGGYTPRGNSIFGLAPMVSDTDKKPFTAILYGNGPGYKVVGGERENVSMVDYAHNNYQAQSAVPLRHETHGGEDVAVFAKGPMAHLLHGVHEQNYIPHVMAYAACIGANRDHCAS
# Protocol: as §1
# [4] = 1 mM, medium control 10.2, DMSO 8.4
# [5] = concentration not given, results not shown
# T1 sequence (P05187 23-506 limits assumed): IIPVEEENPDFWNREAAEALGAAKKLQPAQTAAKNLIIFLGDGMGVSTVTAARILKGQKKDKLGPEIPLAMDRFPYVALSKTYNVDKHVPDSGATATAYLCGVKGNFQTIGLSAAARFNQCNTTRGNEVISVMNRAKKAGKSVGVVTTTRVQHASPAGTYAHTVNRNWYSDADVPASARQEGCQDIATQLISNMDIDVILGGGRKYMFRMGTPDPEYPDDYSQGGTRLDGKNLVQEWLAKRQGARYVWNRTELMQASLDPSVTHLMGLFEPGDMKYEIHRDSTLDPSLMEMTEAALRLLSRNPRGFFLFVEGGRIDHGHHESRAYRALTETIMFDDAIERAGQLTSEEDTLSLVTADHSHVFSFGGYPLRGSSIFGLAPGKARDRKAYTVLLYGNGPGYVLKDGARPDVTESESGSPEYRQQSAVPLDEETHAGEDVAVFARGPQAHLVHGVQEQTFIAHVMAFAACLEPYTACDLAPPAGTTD
structure (smiles),measurement,setting,value
"CC[N+]1=C2SCCN2C[C@@H]1c1ccccc1 [Compound 8b, N-ethyllevamisole trifluoroacetate]",Area % (percent of the area covered by HUVEC as observed by CD31 staining),[1]; 0.2 mM,5.4%
same,Grading,[1]; 0.2 mM,+
same,Morphology,[1]; 0.2 mM,Mixed
"Nc1ccc(-c2cn3c(n2)SCC3)cc1 [Compound 4, 4-(2,3-dihydroimidazo-[2,1-b]thiazol-6-yl)aniline, reference compound]",Grading,[1]; 1 mM,+++ (cords with area <4%)
same,Morphology,[1]; 1 mM,Cords
same,Area % (percent of the area covered by HUVEC as observed by CD31 staining),[1]; [4],2.0%
same,inhibition of angiogenesis compared with (S)-levamisole hydrochloride (1),[1],more potent than (S)-levamisole hydrochloride
"CCCC[N+]1=C2SCCN2C[C@@H]1c1ccccc1 [Compound 10, (S)-N-(n-Butyl)-levamisole trifluoroacetate]",Area % (percent of the area covered by HUVEC as observed by CD31 staining),[1]; 0.3 mM,5.0%
same,Grading,[1]; 0.3 mM,+
same,Morphology,[1]; 0.3 mM,Mixed
"NC(CO)(CO)CO [TRIZMA, reference compound]",effect in the angiogenesis assay,[1]; [5],neither showed an effect
"CC[N+]1=C2SCCN2C[C@@H]1c1ccccc1 [Compound 8a, N-ethyllevamisole iodide]",Area % (percent of the area covered by HUVEC as observed by CD31 staining),[1]; 0.7 mM,5.2%
same,Grading,[1]; 0.7 mM,+
same,Morphology,[1]; 0.7 mM,Mixed
same,IC50,[2],> 2000 µM
same,IC50,[3],> 2000 µM
"c1ccc(C[N+]2=C3SCCN3C[C@@H]2c2ccccc2)cc1 [Compound 11a, N-benzyllevamisole bromide]",Area % (percent of the area covered by HUVEC as observed by CD31 staining),[1]; 0.7 mM,2.8%
same,Grading,[1]; 0.7 mM,+
same,Morphology,[1]; 0.7 mM,Mixed
"c1ccc(C2CN3CCSC3=N2)cc1 (racemic) [Compound 2, (±)-levamisole, reference compound]",Grading,[1]; 1 mM,++ (clusters with area >4%)
same,Morphology,[1]; 1 mM,Clusters
same,Area % (percent of the area covered by HUVEC as observed by CD31 staining),[1]; [4],8.0%
same,inhibition of angiogenesis compared with (S)-levamisole hydrochloride (1),[1],same effect as the enantiomerically pure parent compound
same,IC50,[2],1200 µM
same,IC50,[3],1000 µM
"c1ccc([C@H]2CN3CCSC3=[N+]2CC2CCCCC2)cc1 [Compound 12, (S)-N-Cyclohexylmethylenelevamisole]",Area % (percent of the area covered by HUVEC as observed by CD31 staining),[1]; 0.1 mM,3.7%
same,Grading,[1]; 0.1 mM,+
same,Morphology,[1]; 0.1 mM,Mixed
same,IC50,[2],> 2000 µM
same,IC50,[3],> 2000 µM
"c1ccc(C[N+]2=C3SCCN3C[C@@H]2c2ccccc2)cc1 [Compound 11b, N-benzyllevamisole trifluoroacetate]",Area % (percent of the area covered by HUVEC as observed by CD31 staining),[1]; 0.4 mM,4.0%
same,Grading,[1]; 0.4 mM,+
same,Morphology,[1]; 0.4 mM,Mixed
same,IC50,[2],> 2000 µM
same,IC50,[3],> 2000 µM
"CC(C)[N+]1=C2SCCN2C[C@@H]1c1ccccc1 [Compound 9, (S)-N-Isopropyllevamisole trifluoroacetate]",Area % (percent of the area covered by HUVEC as observed by CD31 staining),[1]; 0.6 mM,2.6%
same,Grading,[1]; 0.6 mM,+
same,Morphology,[1]; 0.6 mM,Mixed
same,IC50,[2],> 2000 µM
same,IC50,[3],> 2000 µM
"OCCN(CCO)C(CO)(CO)CO [BIS-TRIS, reference compound]",effect in the angiogenesis assay,[1]; 10 mM,Neither BIS-TRIS nor BICINE showed any effects
"C[N+]1=C2SCCN2C[C@@H]1c1ccccc1 [Compound 7b, N-methyllevamisole trifluoroacetate]",Grading,[1]; 1 mM,++++ (clusters with area <4%)
same,Morphology,[1]; 1 mM,Clusters
same,Area % (percent of the area covered by HUVEC as observed by CD31 staining),[1]; [4],3.3%
same,inhibition of angiogenesis compared with (S)-levamisole hydrochloride (1),[1],more potent than (S)-levamisole hydrochloride
same,IC50,[2],> 2000 µM
same,IC50,[3],> 2000 µM
same,inhibition of tissue non-specific alkaline phosphatase,[3]; at 2 mM or higher,no inhibition
"Cn1ccnc1 [N-methylimidazole, reference compound]",effect in the angiogenesis assay,[1]; 1 mM,no effect
same,effect in the angiogenesis assay,[1]; 10 mM,had an effect
"O=C(O)CNC(CO)(CO)CO [TRICINE, reference compound]",effect in the angiogenesis assay,[1]; [5],neither showed an effect
"O=S(=O)(O)CCN1CCN(CCO)CC1 [HEPES, reference compound]",effect in the angiogenesis assay,[1]; [5],neither showed an effect
"O=C(O)CN(CCO)CCO [BICINE, reference compound]",effect in the angiogenesis assay,[1]; 10 mM,Neither BIS-TRIS nor BICINE showed any effects
